Test [1] deals with HLA-E. It counts as binding, human.
Test [2] concerns the target HLA-E*01:03 (Homo sapiens, UniProt P13747). Briefly: SEC-SAXS of peptide-refolded HLA-E*01:03 complexes. (In general: Size exclusion chromatography separates by hydrodynamic size, large species first.)
Test [3] has as its system HLA-E. The format is binding, human. This is another data set of the same source.

Consider one sequence from PMC9380258, “Primary and secondary functions of HLA-E are determined by stability and conformation of the peptide-bound complexes” (Cell Reports, 2022).

With RMAATAVVL [Mtb14 P7V], in test [1], the “increase in thermal stability” value stood at 3.6 °C. Moreover, in test [2], the “decrease in the Rg” value is recorded as 6.8 Å and the “decrease in the dmax” value is listed as 23 Å. In addition, in test [3], the “increase in the ELISA-based binding signal” value is recorded as 36%.
